Target: T1, Sirt6 (Homo sapiens, UniProt Q8N6T7)
T1 construct: purchased CycLex CY-1156V2
Test: Measurement of Sirt6 Activity (CycLex Sirt6 Deacetylase Fluorometric Assay Kit)
Assay type: biochemical
Details: compound at 10 μM; fluorescence relative to the group without compound treatment (positive control group)
Procedure: LC-MS (ESI, m/z)=430.1 (M+H^+) Experimental Example 1: Measurement of Sirt6 Activity Compounds having Sirt6 activity were selected using a CycLex Sirt6 Deacetylase Fluorometric Assay Kit (cat. CY-1156V2) manufactured by CycLex.
When a fluorescent-attached acetylated lysine substrate is treated with Sirt6 enzyme, Sirt6 deacetylates the acetylated lysine of the substrate and lysylendopeptidase cleaves the C-terminal peptide bond connected to the lysine, by which fluorescence is emitted. The activity of a compound is calculated by observing the intensity of fluorescence when the compound is treated along with Sirt6 enzyme. When treating the compound, the compound aids in the activity of Sirt6 enzyme, so as to result in stronger fluorescence. Therefore, by calculating the ratio of the stronger fluorescence relative to the fluorescence emitted from the group without compound treatment (i.e., positive control group), relative activity can be calculated.
Activity evaluation was performed according to the following procedure.
The compound whose activity is to be evaluated was prepared by diluting in phosphate-buffered saline (PBS) to 10 times of the desired concentration (e.g., when measuring Sirt6 assay activity at 10 μM, the compound is prepared at a concentration of 100 μM in PBS). 1 μL of a 1 Ox Sirt6 assay buffer, 0.8 μL of 50× fluoro-substrate peptide, 1 μL of nicotinamide adenine dinucleotide (NAD), 1 μL of a developer and 4.2 μL of H2O were mixed to prepare mixtures equal to the number of samples, and 8 μL was dispensed into each Black 384 well. An additional 1 μL of PBS was added to each of a “no enzyme group” and a positive control group, and 1 μL of the compound diluted in PBS was added to an activity evaluation group. Recombinant Sirt6 was 1:8 diluted in a 1×Sirt6 assay buffer, and 1 μL thereof was added to each of the positive control group and the activity evaluation group. 1 μL of the 1×Sirt6 assay buffer was added to the “no enzyme group.” After reacting at room temperature for one hour, results were measured with a fluorescence spectrometer (excitation: 490±10 nm, emission: 530±10 nm) to confirm the presence or absence of Sirt6 activity and measure the intensity of the activity.

T1 sequence (Q8N6T7 whole entry): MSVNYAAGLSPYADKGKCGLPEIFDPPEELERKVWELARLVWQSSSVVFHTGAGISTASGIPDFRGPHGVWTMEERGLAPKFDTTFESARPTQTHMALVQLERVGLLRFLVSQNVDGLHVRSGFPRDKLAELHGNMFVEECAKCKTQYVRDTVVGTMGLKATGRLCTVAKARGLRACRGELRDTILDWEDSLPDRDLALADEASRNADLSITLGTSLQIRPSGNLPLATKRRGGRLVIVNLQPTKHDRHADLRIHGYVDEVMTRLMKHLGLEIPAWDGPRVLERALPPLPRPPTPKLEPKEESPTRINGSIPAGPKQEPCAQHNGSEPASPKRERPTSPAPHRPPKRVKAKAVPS

| Sirt6 Activity (% activity, 10 μM) [% activity] | SMILES |
| --- | --- |
| 104 | CCS(=O)(=O)Nc1cccc(-c2nn(Cc3ccccc3)c(=O)c3ccccc23)c1 [Example 61, N-(3-(3-Benzyl-4-oxo-3,4-dihydrophthalazin-1-yl)phenyl)ethanesulfonamide] |
| 111 | CCS(=O)(=O)Nc1cccc(-c2nn(CCc3ccccc3)c(=O)c3ccccc23)c1 [Example 62, N-(3-(4-Oxo-3-phenethyl-3,4-dihydrophthalazin-1-yl)phenyl)ethanesulfonamide] |
| 103 | CCS(=O)(=O)Nc1cccc(-c2nn(Cc3ccc(F)cc3)c(=O)c3ccccc23)c1 [Example 63, N-(3-(3-(4-Fluorobenzyl)-4-oxo-3,4-dihydrophthalazin-1-yl)phenyl)ethanesulfonamide] |
| 106 | CCS(=O)(=O)Nc1cccc(-c2nn(-c3ccc(-c4ccccc4)cc3)c(=O)c3ccccc23)c1 [Example 64, N-(3-(3-([1,1′-Biphenyl]-4-yl)-4-oxo-3,4-dihydrophthalazin-1-yl)phenyl)ethane Sulfonamide] |
| 96 | CCS(=O)(=O)N(C)c1cccc(-c2nn(-c3ccc(-c4ccccc4)cc3)c(=O)c3ccccc23)c1 [Example 65, N-(3-(3-([1,1′-Biphenyl]-4-yl)-4-oxo-3,4-dihydrophthalazin-1-yl)phenyl)-N-methylethanesulfonamide] |
| 103 | COC(=O)c1cccc(-c2nn(-c3ccc(F)cc3)c(=O)c3ccccc23)c1 [Example 66, Methyl 3-(3-(4-fluorophenyl)-4-oxo-3,4-dihydrophthalazin-1-yl)benzoate] |
| 166 | CC(C)S(=O)(=O)Nc1cccc(-c2nn(-c3ccc(F)cc3)c(=O)c3ccccc23)c1 [Example 67, N-(3-(3-(4-Fluorophenyl)-4-oxo-3,4-dihydrophthalazin-1-yl)phenyl)propan-2-sulfonamide] |
| 160 | CCCS(=O)(=O)Nc1cccc(-c2nn(-c3ccc(F)cc3)c(=O)c3ccccc23)c1 [Example 68, N-(3-(3-(4-Fluorophenyl)-4-oxo-3,4-dihydrophthalazin-1-yl)phenyl)propan-1-sulfonamide] |
| 209 | CN(c1cccc(-c2nn(-c3ccc(F)cc3)c(=O)c3ccccc23)c1)S(C)(=O)=O [Example 69, N-(3-(3-(4-Fluorophenyl)-4-oxo-3,4-dihydrophthalazin-1-yl)phenyl)-N-methylmethane Sulfonamide] |
| 135 | CCS(=O)(=O)N(C)c1cccc(-c2nn(-c3ccc(F)cc3)c(=O)c3ccccc23)c1 [Example 70, N-(3-(3-(4-Fluorophenyl)-4-oxo-3,4-dihydrophthalazin-1-yl)phenyl)-N-methylethane Sulfonamide] |
| 150 | O=c1c2ccccc2c(-c2cccc(NS(=O)(=O)C3CC3)c2)nn1-c1ccc(F)cc1 [Example 71, N-(3-(3-(4-Fluorophenyl)-4-oxo-3,4-dihydrophthalazin-1-yl)phenyl)cyclopropane Sulfonamide] |
| 115 | CCCS(=O)(=O)N(C)c1cccc(-c2nn(-c3ccc(F)cc3)c(=O)c3ccccc23)c1 [Example 72, N-(3-(3-(4-Fluorophenyl)-4-oxo-3,4-dihydrophthalazin-1-yl)phenyl)-N-methylpropan-1-sulfonamide] |

Further lines, the compound ahead of its results:

| SMILES | Sirt6 Activity (% activity, 10 μM) [% activity] |
| --- | --- |
| O=c1c2ccccc2c(-c2cccc(/C=[N+](\[O-])Cc3ccccc3)c2)nn1-c1ccc(F)cc1 [Example 44, (Z)—N-Benzyl-1-(3-(3-(4-fluorophenyl)-4-oxo-3,4-dihydrophthalazin-1-yl)phenyl)methanimine Oxide] | 142 |
| C/[N+]([O-])=C/c1ccc(-c2nn(-c3ccc(F)cc3)c(=O)c3ccccc23)s1 [Example 45, (Z)-1-(5-(3-(4-Fluorophenyl)-4-oxo-3,4-dihydrophthalazin-1-yl)thiophen-2-yl)-N-methylmethanimine Oxide] | 195 |
| CC(C)/[N+]([O-])=C/c1ccc(-c2nn(-c3ccc(F)cc3)c(=O)c3ccccc23)s1 [Example 46, (Z)-1-(5-(3-(4-Fluorophenyl)-4-oxo-3,4-dihydrophthalazin-1-yl)thiophen-2-yl)-N-isopropylmethanimine Oxide] | 154 |
| CC(C)(C)/[N+]([O-])=C/c1ccc(-c2nn(-c3ccc(F)cc3)c(=O)c3ccccc23)s1 [Example 47, (Z)—N-tert-Butyl-1-(5-(3-(4-fluorophenyl)-4-oxo-3,4-dihydrophthalazin-1-yl)thiophen-2-yl)methanimine Oxide] | 132 |
| CC(C)/[N+]([O-])=C/c1ccc(-c2nn(-c3ccc(F)cc3)c(=O)c3ccccc23)o1 [Example 48, (Z)-1-(5-(3-(4-Fluorophenyl)-4-oxo-3,4-dihydrophthalazin-1-yl)furan-2-yl)-N-isopropylmethanimine Oxide] | 107 |
| COc1ccc(-c2nn(-c3ccc(F)cc3)c(=O)c3ccccc23)cc1/C=[N+](\[O-])C(C)(C)C [Example 49, (Z)—N-tert-Butyl-1-(5-(3-(4-fluorophenyl)-4-oxo-3,4-dihydrophthalazin-1-yl)-2-methoxyphenyl)methan Imine Oxide] | 107 |
| COc1ccc(-c2nn(-c3ccc(F)cc3)c(=O)c3ccccc23)cc1/C=[N+](\[O-])Cc1ccccc1 [Example 50, (Z)—N-Benzyl-1-(5-(3-(4-fluorophenyl)-4-oxo-3,4-dihydrophthalazin-1-yl)-2-methoxyphenyl)methanimine Oxide] | 105 |
| C/[N+]([O-])=C/c1cc(-c2nn(-c3ccc(F)cc3)c(=O)c3ccccc23)ccc1F [Example 51, (Z)-1-(2-Fluoro-5-(3-(4-fluorophenyl)-4-oxo-3,4-dihydrophthalazin-1-yl)phenyl)-N-methylmethanimine Oxide] | 139 |
| CC(C)/[N+]([O-])=C/c1cc(-c2nn(-c3ccc(F)cc3)c(=O)c3ccccc23)ccc1F [Example 52, (Z)-1-(2-Fluoro-5-(3-(4-fluorophenyl)-4-oxo-3,4-dihydrophthalazin-1-yl)phenyl)-N-isopropylmethanimine Oxide] | 172 |
| CC(C)(C)/[N+]([O-])=C/c1cc(-c2nn(-c3ccc(F)cc3)c(=O)c3ccccc23)ccc1F [Example 53, (Z)—N-tert-Butyl-1-(2-fluoro-5-(3-(4-fluorophenyl)-4-oxo-3,4-dihydrophthalazin-1-yl)phenyl) Methanimine Oxide] | 172 |
| O=c1c2ccccc2c(-c2ccc(F)c(/C=[N+](\[O-])Cc3ccccc3)c2)nn1-c1ccc(F)cc1 [Example 54, (Z)—N-Benzyl-1-(2-fluoro-5-(3-(4-fluorophenyl)-4-oxo-3,4-dihydrophthalazin-1-yl)phenyl) Methanimine Oxide] | 161 |
| C/[N+]([O-])=C/c1ccc(F)c(-c2nn(-c3ccc(F)cc3)c(=O)c3ccccc23)c1 [Example 55, (Z)-1-(4-Fluoro-3-(3-(4-fluorophenyl)-4-oxo-3,4-dihydrophthalazin-1-yl)phenyl)-N-methylmethanimine Oxide] | 151 |
| CC(C)/[N+]([O-])=C/c1ccc(F)c(-c2nn(-c3ccc(F)cc3)c(=O)c3ccccc23)c1 [Example 56, (Z)-1-(4-Fluoro-3-(3-(4-fluorophenyl)-4-oxo-3,4-dihydrophthalazin-1-yl)phenyl)-N-isopropylmethanimine Oxide] | 115 |
| CC(C)(C)/[N+]([O-])=C/c1ccc(F)c(-c2nn(-c3ccc(F)cc3)c(=O)c3ccccc23)c1 [Example 57, (Z)—N-tert-Butyl-1-(4-fluoro-3-(3-(4-fluorophenyl)-4-oxo-3,4-dihydrophthalazin-1-yl)phenyl) Methanimine Oxide] | 149 |
| O=c1c2ccccc2c(-c2cc(/C=[N+](\[O-])Cc3ccccc3)ccc2F)nn1-c1ccc(F)cc1 [Example 58, (Z)—N-Benzyl-1-(4-fluoro-3-(3-(4-fluorophenyl)-4-oxo-3,4-dihydrophthalazin-1-yl)phenyl) Methanimine Oxide] | 131 |
| O=c1c2ccccc2c(-c2ccc(Cl)c([N+](=O)[O-])c2)nn1-c1ccc(F)cc1 [Example 59, 4-(4-Chloro-3-nitrophenyl)-2-(4-fluorophenyl)phthalazin-1(2H)-one] | 109 |
| Nc1cccc(-c2nn(-c3ccc(F)cc3)c(=O)c3ccccc23)c1 [Example 60, 4-(3-Aminophenyl)-2-(4-fluorophenyl) phthalazin-1(2H)-one] | 176 |
